For the assay, the target named is T1, CDK2/Cyclin E complex (Homo sapiens, UniProt P24941).
T1 construct: purchased Eurofins 14-475
Put plainly: CDK2/Cyclin E fluorescence-based microfluidic mobility shift assay (CDK2 Biochemical Caliper Assay). Conditions: read-out: Biochemical CDK2/CyclinE Caliper IC50. In short, it runs like this:
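Microfluidic mobility-shift readout after EDTA termination measured phosphorylation of fluorescent FL Peptide 18 (1.5 uM final) in a 20 hr room-temperature reaction. Compounds were tested at 11 concentrations (3-fold).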
For the compound `COCc1cc2c(Nc3cc([C@H]4C[C@@H](COc5nncn5C(C)(C)C)C4)[nH]n3)nccn2n1` [Example 636], the IC50 was no more than 100 nM. With `CC(C)(C)n1cnnc1OC[C@H]1C[C@@H](c2cc(Nc3nccn4nccc34)n[nH]2)C1` [Example 637], the IC50 is no more than 100 nM. With `COCc1cc2c(Nc3cc([C@H]4C[C@@H](OC(=O)N[C@H](C)CC(F)(F)F)CO4)[nH]n3)nccn2n1` [Example 638] the figure was no more than 100 nM. With `COCc1cc2c(Nc3cc([C@H]4C[C@@H](OC(=O)N[C@@H](C)CC(F)(F)F)CO4)[nH]n3)nccn2n1` [Example 639] the figure was no more than 100 nM; with `COCc1cc2c(Nc3cc([C@H]4C[C@@H](OC(=O)NC5(C(F)(F)F)CC5)CO4)[nH]n3)nccn2n1` [Example 640], no more than 100 nM; with `COCc1cc2c(Nc3cc([C@H]4C[C@@H](OC(=O)NC(C)(C)C(F)(F)F)CO4)[nH]n3)nccn2n1` [Example 641], no more than 100 nM. On to `COCc1cc(C(=O)Nc2cc([C@H]3C[C@@H](COc4cn(C)nc4C(C)(C)C)C3)[nH]n2)n(C)n1` [Example 642], for which the IC50 lay in the range of 100 to 250 nM.

For the compound `COCc1cc2c(Nc3cc([C@H]4C[C@@H](OC(=O)NC5(CC(F)(F)F)CC5)CO4)[nH]n3)nccn2n1` [Example 643], the IC50 is no more than 100 nM. As for `COCc1cc2c(Nc3cc([C@H]4C[C@@H](OC(=O)NC5(C(F)F)CC5)CO4)[nH]n3)nccn2n1` [Example 644], the IC50 was no more than 100 nM.

As to `COCc1cc(C(=O)Nc2cc([C@H]3C[C@@H](COc4cn[nH]c4C4(C)CC4)C3)[nH]n2)n(C)n1` [Example 645], the IC50 was 250 to 1000 nM.

For the compound `CC(C)NC(=O)OC[C@H]1C[C@@H](c2cc(NC(=O)c3cc(COC(F)(F)F)nn3C)n[nH]2)C1` [Example 646], the IC50 is no more than 100 nM. With `COCc1cc2c(Nc3cc([C@H]4C[C@@H](OC(=O)NC(C)(C)C(F)F)CO4)[nH]n3)nccn2n1` [Example 647] the figure was no more than 100 nM.

Regarding `CC(C)NC(=O)O[C@@H]1CO[C@H](c2cc(Nc3nccc4nccn34)n[nH]2)C1` [Example 648], the IC50 was no more than 100 nM. As for `CC(C)NC(=O)O[C@H]1CO[C@@H](c2cc(Nc3nccc4nccn34)n[nH]2)C1` [Example 649], the figure is no more than 100 nM. With `CC(C)NC(=O)OC[C@H]1C[C@@H](c2cc(NC(=O)c3cc(COC(F)F)nn3C)n[nH]2)C1` [Example 650] the figure was no more than 100 nM; with `COCc1cc2c(Nc3cc([C@H]4C[C@@H](OC(=O)NC56CC(C5)C6)CO4)[nH]n3)nccn2n1` [Example 651], no more than 100 nM; with `CC(C)NC(=O)OC[C@H]1C[C@@H](c2cc(NC(=O)c3cc(COC(C)C)nn3C)n[nH]2)C1` [Example 652], no more than 100 nM. Take `CCOCc1cc2c(Nc3cc([C@H]4C[C@@H](OC(=O)NC(C)C)CO4)[nH]n3)nccn2n1` [Example 653]: the IC50 was no more than 100 nM. As for `CC[C@@H](C)NC(=O)O[C@H]1CO[C@@H](c2cc(Nc3nccn4nc(COC)cc34)n[nH]2)C1` [Example 654], the figure is no more than 100 nM; as for `COCc1cc2c(Nc3cc([C@H]4C[C@@H](OC(=O)N[C@H](C)C5CC5)CO4)[nH]n3)nccn2n1` [Example 655], no more than 100 nM; as for `COCc1cc2c(Nc3cc([C@H]4C[C@@H](OC(=O)N[C@@H](C)C5CC5)CO4)[nH]n3)nccn2n1` [Example 656], no more than 100 nM. As for `CC(C)NC(=O)O[C@@H]1CC[C@H](c2cc(NC(=O)c3cc(CN4CCC(F)(F)C4)nn3C)n[nH]2)C1` [Example 657], the figure is no more than 100 nM.

Consider `CC(C)NC(=O)O[C@H]1CO[C@@H](c2cc(Nc3nccn4nc(COC(C)C)cc34)n[nH]2)C1` [Example 658], for which the IC50 is no more than 100 nM. As for `COCc1cc2c(Nc3cc([C@H]4C[C@@H](OC(N)=O)CO4)[nH]n3)nccn2n1` [Example 659], the figure is 1000 to 100000 nM; as for `C#CC1CN(C(=O)O[C@@H]2CC[C@H](c3cc(NC(=O)Cc4cc(C)no4)n[nH]3)C2)C1` [Example 660], 100 to 250 nM; as for `Cc1cc(CC(=O)Nc2cc([C@H]3CC[C@@H](OC(=O)N4CC5C(C4)C5(C)C)C3)[nH]n2)on1` (some centres unmarked) [Example 661], no more than 100 nM.

`Cc1cc(CC(=O)Nc2cc([C@H]3CC[C@@H](OC(=O)N4C[C@@H]5[C@@H](CF)[C@@H]5C4)C3)[nH]n2)on1` [Example 662]: the IC50 was no more than 100 nM. As for `Cc1cc(CC(=O)Nc2cc([C@H]3CC[C@@H](OC(=O)N4CC5CC(C5)C4)C3)[nH]n2)on1` [Example 663], the figure is no more than 100 nM; as for `Cc1cc(CC(=O)Nc2cc([C@H]3CC[C@@H](OC(=O)N4CC5CC(F)(C5)C4)C3)[nH]n2)on1` [Example 664], 100 to 250 nM.

`COCc1cc2c(Nc3cc([C@H]4C[C@@H](OC(=O)N[C@@H](C)C(C)C)CO4)[nH]n3)nccn2n1` [Example 665]: the IC50 is no more than 100 nM. With `COCc1cc2c(Nc3cc([C@H]4C[C@@H](OC(=O)NC5CCC5)CO4)[nH]n3)nccn2n1` [Example 666] the figure was no more than 100 nM; with `CC(C)NC(=O)O[C@H]1CO[C@@H](c2cc(Nc3nccn4nc(COC(F)F)cc34)n[nH]2)C1` [Example 667], no more than 100 nM; with `COCc1cc2c(Nc3cc([C@H]4C[C@@H](OC(=O)NC5(COC)CC5)CO4)[nH]n3)nccn2n1` [Example 668], no more than 100 nM. With `CC(C)NC(=O)O[C@H]1CO[C@@H](c2cc(Nc3nccn4nc(CN5CCOCC5)cc34)n[nH]2)C1` [Example 669] the figure was no more than 100 nM; with `COCc1cc(C(=O)Nc2ncc([C@H]3C[C@@H](COC(=O)NC(C)C)C3)s2)n(C)n1` [Example 670], no more than 100 nM.

In the case of `COCc1cc2c(Nc3cc([C@H]4C[C@@H](Oc5nncn5C(C)C)CO4)[nH]n3)nccn2n1` [Example 671], the IC50 lay in the range of 100 to 250 nM. With `CC(C)NC(=O)O[C@@H]1CC[C@H](c2cc(NC(=O)c3cc(CN4CC(F)(F)C4)nn3C)n[nH]2)C1` [Example 672] the figure was no more than 100 nM; with `CC(C)NC(=O)O[C@H]1CO[C@@H](c2cc(Nc3nccn4nc(CN5CCC5)cc34)n[nH]2)C1` [Example 673], no more than 100 nM. Take `COCc1cc2c(Nc3cc([C@H]4C[C@@H](OC(=O)NC5(C)CCC5)CO4)[nH]n3)nccn2n1` [Example 674]: the IC50 was no more than 100 nM. As for `CC[C@H](C)NC(=O)O[C@H]1CO[C@@H](c2cc(Nc3nccn4nc(COC)cc34)n[nH]2)C1` [Example 675], the IC50 is no more than 100 nM. With `CC(C)NC(=O)O[C@H]1CO[C@@H](c2cc(Nc3nccn4nc(CN5CCCC5)cc34)n[nH]2)C1` [Example 676] the figure was no more than 100 nM; with `COCc1cc2c(Nc3cc([C@H]4C[C@@H](OC(=O)N[C@H]5CC5(C)C)CO4)[nH]n3)nccn2n1` [Example 677], no more than 100 nM; with `COCc1cc2c(Nc3cc([C@H]4C[C@@H](OC(=O)NC5(c6cnn(C)c6)CC5)CO4)[nH]n3)nccn2n1` [Example 678], 100 to 250 nM. For the compound `COCc1cc2c(Nc3cc([C@H]4C[C@@H](OC(=O)N[C@@H]5CC5(C)C)CO4)[nH]n3)nccn2n1` [Example 679], the IC50 is no more than 100 nM. Consider `COCc1cc2c(Nc3cc([C@H]4C[C@@H](OC(=O)NC5(CF)CC5)CO4)[nH]n3)nccn2n1` [Example 680], for which the IC50 was no more than 100 nM. Turning to `COCc1nc2ccnc(Nc3cc([C@H]4C[C@@H](OC(=O)NC5(C)CC5)CO4)[nH]n3)c2s1` [Example 681], the IC50 was no more than 100 nM. With `COCc1nc2ccnc(Nc3cc([C@H]4C[C@@H](OC(=O)NC5(COC)CC5)CO4)[nH]n3)c2s1` [Example 682] the figure was no more than 100 nM. With `COCc1cc2c(Nc3cc([C@H]4C[C@@H](OC(=O)NC5COC5)CO4)[nH]n3)nccn2n1` [Example 683], the IC50 fell in the range of 250 to 1000 nM. As for `COCc1cc2c(Nc3cc([C@H]4C[C@@H](OC(=O)NC56CCC(CC5)CC6)CO4)[nH]n3)nccn2n1` [Example 684], the figure is no more than 100 nM; as for `COCc1cc2c(Nc3cc([C@H]4C[C@@H](OC(=O)N[C@H](C)C5(C)COC5)CO4)[nH]n3)nccn2n1` [Example 685], 1000 to 100000 nM; as for `COCc1cc2c(Nc3cc([C@H]4C[C@@H](OC(=O)N[C@@H](C)C5COC5)CO4)[nH]n3)nccn2n1` [Example 686], 100 to 250 nM. As for `COCc1cc2c(Nc3cc([C@H]4C[C@@H](OC(=O)N[C@H]5C[C@@H]5C)CO4)[nH]n3)nccn2n1` [Example 687], the figure is no more than 100 nM. As for `COCc1cc2c(Nc3cc([C@H]4C[C@@H](OC(=O)N[C@@H](C)C5(C)COC5)CO4)[nH]n3)nccn2n1` [Example 688], the figure is 100 to 250 nM; as for `COCc1cc(C(=O)Nc2cc([C@H]3C[C@@H](COc4[nH]ncc4C(C)C)C3)[nH]n2)n(C)n1` [Example 689], no more than 100 nM; as for `COCc1cc2c(Nc3cc([C@H]4C[C@@H](COc5nncn5C5(C)CC5)C4)[nH]n3)nccn2n1` [Example 690], no more than 100 nM. As for `COCc1cc(C(=O)Nc2cc([C@H]3C[C@@H](COc4[nH]ncc4C(C)(C)C)C3)[nH]n2)n(C)n1` [Example 691], the IC50 was no more than 100 nM. As to `COCc1nc2ccnc(Nc3cc([C@H]4C[C@@H](OC(=O)NC(C)(C)C)CO4)[nH]n3)c2s1` [Example 692], the IC50 is no more than 100 nM.

Consider `COCc1cc2c(Nc3cc([C@H]4C[C@@H](OC(=O)N[C@H]5CC[C@@H](OC)CC5)CO4)[nH]n3)nccn2n1` [Example 693], for which the IC50 was 1000 to 100000 nM. As for `COCc1cc2c(Nc3cc([C@H]4C[C@@H](OC(=O)NCCC5CCOCC5)CO4)[nH]n3)nccn2n1` [Example 694], the figure is 1000 to 100000 nM. Turning to `COCc1cc2c(Nc3cc([C@H]4C[C@@H](OC(=O)NC(C)(C)COC)CO4)[nH]n3)nccn2n1` [Example 695], the IC50 was no more than 100 nM. With `COCc1nc2ccnc(Nc3cc([C@H]4C[C@@H](OC(=O)NC5(C)COC5)CO4)[nH]n3)c2s1` [Example 696], the IC50 is no more than 100 nM. With `COCc1cc2c(Nc3cc([C@H]4C[C@@H](OC(=O)N[C@@H]5C[C@H]5C)CO4)[nH]n3)nccn2n1` [Example 697], the IC50 is no more than 100 nM.

These data come from US20240190855A1 (Relay Therapeutics, Inc., priority 2021, published 2024).
